Results on four molecules are retold here after the NIST ThermoML archive (doi:10.1016/j.fluid.2014.07.011).

± gives the expanded uncertainty stated by the source.

This data set in a line: Boiling temperature at pressure P. The note with it: 101 kPa; Liquid; Ebulliometric method (Recirculating still).
For the molecule `O=Cc1ccco1` [2-furaldehyde], the “Boiling temperature at pressure P” value came to 162 ± 1.6 °C.
As for `CC(=O)CC(C)C` [4-methylpentan-2-one], the figure is 117.4 ± 1.6 °C; as for `OC1CCCC1` [cyclopentanol], 139.4 ± 1.6 °C.
As for `CCOC(C)=O` [ethyl acetate], the figure is 77.1 ± 1.6 °C.
